Measurements reported in patent US20240165173A1, “METHOD OF REDUCING URIC ACID BY USING LACTOBACILLUS PARACASEI LT12” (priority 2022, published 2024).
Where “and” joins values, the source holds several entries; their conditions need not be identical. Equal entries are not always repeated.

Legend:
xanthine oxidase (XOD) = assay type: in vivo, ICR mice; details: mice of the high uric acid model, after interference
Procedure: Tested animals are 5-week old male ICR mice purchased from Shanghai JSJ Laboratory Animal Co., Ltd., SPF grade. All mice were grown under the conditions of a temperature of 24±2° C., alternating 12 h light and 12 h dark, and free feeding and drinking for adaptation. After 1 week of adaptation, mice were randomly grouped into 10 groups, 7 mice in one group. […] Modeling period is two weeks and interfering period is four weeks. During modeling, except for the normal control group, the other groups were subjected to gavage with 300 mg/kg potassium oxonate and hypoxanthine (formulated into a suspension using 0.5% CMC-Na solution) every day for high uric acid modeling. During interference, except for the normal control group, the other groups were subjected to gavage with 300 mg/kg potassium oxonate and hypoxanthine every day for continued modeling. 2 h after modeling, each group of mice were administered at the dose according to FIG. 2. The drug samples for each group were dissolved in saline. […]
The levels of uric acid, creatinine, blood urea nitrogen, lactate dehydrogenase, xanthine oxidase (XOD), oxidative stress levels (glutathione (GSH), superoxide dismutase (SOD), glutathione peroxidase (GSH-Px), malondialdehyde (MDA), inflammatory factors (TNF-alpha, IL-1β, and IL-6)) were detected according to the detection method described in the specification in the kits. […]

[1] = test system: high uric acid mice model (potassium oxonate and hypoxanthine); assay type: in vivo, ICR mice; set-up: inflammatory cell infiltration (pathological score) / renal tubules hydropic degeneration (pathological score) / renal tubules atrophy (pathological score) / renal tubules dilation (pathological score) / connective tissue proliferation (pathological score) / Protein cast (pathological score): scale not given here
Procedure: (§1) Tested animals are 5-week old male ICR mice purchased from Shanghai JSJ Laboratory Animal Co., Ltd., SPF grade. All mice were grown under the conditions of a temperature of 24±2° C., alternating 12 h light and 12 h dark, and free feeding and drinking for adaptation. After 1 week of adaptation, mice were randomly grouped into […], 7 mice in one group. The groups are normal control group, model group, positive control group, low dose Lactobacillus paracasei LT12 group, and high dose Lactobacillus paracasei LT12 group (see Table 3). Modeling period is two weeks and interfering period is four weeks. During modeling, except for the normal control group, the other groups were subjected to gavage with 300 mg/kg potassium oxonate and hypoxanthine (formulated into a suspension using 0.5% CMC-Na solution) every day for high uric acid modeling. During interference, except for the normal control group, the other groups were subjected to gavage with 300 mg/kg potassium oxonate and hypoxanthine every day for continued modeling. 2 h after modeling, each group of mice were administered at the dose according to FIG. 2. The drug samples for each group were dissolved in saline. The same amount of saline was administered to normal groups and model group.
(§2) During modeling, blood was collected through cutting the tail to detect changes in serum uric acid every week. At the last two days of the experiment, fresh feces of mice of each group were collected and kept in −20° C. refrigerator. Before sacrifice, mice were fasted for 12 h. The last modeling was conducted. Blood was collected 1 h after modeling followed by sacrifice and dissection. Mice whole blood is placed at 4° C. for 2 h followed by centrifugation at 3000 rpm for 10 min. The serum was aliquoted and stored in −80° C. refrigerator. Mice liver, kidneys, and colon were collected. One of the kidneys was preserved in 4% […] for pathological analysis. Other tissue samples were immediately freezed in liquid nitrogen and stored at −80 ° C. for preservation.
(§3) The levels of uric acid, creatinine, blood urea nitrogen, lactate dehydrogenase, xanthine oxidase (XOD), oxidative stress levels (glutathione (GSH), superoxide dismutase (SOD), glutathione peroxidase (GSH-Px), malondialdehyde (MDA), inflammatory factors (TNF-alpha, IL-1β, and IL-6)) were detected according to the detection method described in the specification in the kits. Pathological analysis on renal tissue were completed in corporation with Wuhan Servicebio Technology Co., Ltd., China. Immunoblotting analysis on renal uric acid transporter proteins were conducted according to internal methods in labs.

[2] = test system: high uric acid mice model (potassium oxonate and hypoxanthine)
Procedure: as §1, §2, §3

[3] = Positive group, score per mouse 3-1 to 3-7
[4] = after interference for four weeks, gavage, compared with model and normal group

For `Oc1ncnc2[nH]ncc12` [allopurinol], the “activities of xanthine oxidase in serum and liver” value (xanthine oxidase (XOD)) was “the lowest”, the “Protein cast (pathological score)” value [1, 3] was 1 and 0 (6×) and the “connective tissue proliferation (pathological score)” value [1, 3] was 0 (5×) and 1 (2×). For the same molecule, the “inflammatory cell infiltration (pathological score)” value [1, 3] was 0 (2×) and 1 (5×), the “renal tubules atrophy (pathological score)” value [1, 3] was 0 (5×) and 1 (2×) and the “renal tubules dilation (pathological score)” value [1, 3] was 0 (3×) and 1 (4×). The “renal tubules hydropic degeneration (pathological score)” value [1, 3] was 1 (4×) and 0 and 2 (2×), the “Total score (pathological scores of mice kidneys)” value ([1]; Positive group, sum over 7 mice) was 22 and the “damages in renal tissues” value ([1]; pathological analysis, high uric acid mice) was “severe renal damages were caused”. The “blood urea nitrogen levels” value [2, 4] was “increased”, the serum creatinine levels [2, 4] was “increased” and the “serum uric acid levels” value [2, 4] was “reduced to the levels of the normal group”. The renal toxicity ([2]; mouse, in vivo) was “strong renal toxicity was generated”.
